Measurements reported in ChEMBL document CHEMBL5038658, “Structure-Activity Relationship of 3-Methylcytidine-5'-α,β-methylenediphosphates as CD73 Inhibitors” (J Med Chem, 2022).
Calls of active or inactive are those of the source. The calls are words filed in the database; no cut-off is given here.

What was measured:
5'-nucleotidase [1] = target: T1, 5'-nucleotidase (Homo sapiens, UniProt P21589); test: Inhibition of human soluble CD73 assessed as inhibition constant
5'-nucleotidase [2] = target: T1, 5'-nucleotidase; test: Inhibition of 5'-Nucleotidase activity in human HN-SCC cells assessed as reduction in tumor CD73 catalytic activity incubated for 45 mins in presence of Pb(NO3)2 by […] based assay; assay type: cell-based; conditions: dose 50-250 nM
5'-nucleotidase [3] = target: T1, 5'-nucleotidase; test: Inhibition of 5'-Nucleotidase activity in human tonsils assessed as reduction in CD73 catalytic activity in tonsils incubated for 45 mins in presence of Pb(NO3)2 by […] based assay; assay type: tissue-based; conditions: Tonsil, dose 50-250 nM
5'-nucleotidase [4] = target: T1, 5'-nucleotidase; test: Inhibition of human soluble CD73 at 0.03 to 50000 nM relative to control; conditions: dose 0.03-50000 nM

T1 sequence (P21589 whole entry): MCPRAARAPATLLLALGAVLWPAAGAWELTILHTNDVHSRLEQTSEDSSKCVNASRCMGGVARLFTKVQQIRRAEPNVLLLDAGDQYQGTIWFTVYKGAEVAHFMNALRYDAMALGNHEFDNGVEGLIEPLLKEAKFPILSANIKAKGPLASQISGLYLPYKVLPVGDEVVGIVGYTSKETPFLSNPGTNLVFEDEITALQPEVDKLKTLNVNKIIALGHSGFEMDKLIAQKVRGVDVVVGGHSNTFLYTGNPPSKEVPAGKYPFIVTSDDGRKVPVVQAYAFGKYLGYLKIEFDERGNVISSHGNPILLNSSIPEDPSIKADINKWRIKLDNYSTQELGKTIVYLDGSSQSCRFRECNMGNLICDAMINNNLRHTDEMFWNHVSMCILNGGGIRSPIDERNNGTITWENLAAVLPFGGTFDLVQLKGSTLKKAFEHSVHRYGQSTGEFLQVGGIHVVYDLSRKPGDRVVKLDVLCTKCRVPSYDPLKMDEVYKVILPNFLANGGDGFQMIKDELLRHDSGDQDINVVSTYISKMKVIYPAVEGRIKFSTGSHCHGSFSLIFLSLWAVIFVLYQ

Row | SMILES | Ki (5'-nucleotidase [1]) [nM] | further results
1 | Cn1c(=O)n([C@@H]2O[C@H](COP(=O)(O)CP(=O)(O)O)[C@@H](O)[C@H]2O)cc/c1=N/OCc1cccc(Cl)c1 | 1.58 | 
2 | O=c1[nH]c(=O)n([C@@H]2O[C@H](COP(=O)(O)CP(=O)(O)O)[C@@H](O)[C@H]2O)cc1F | 2540 | 
3 | Cn1c(=O)n([C@@H]2O[C@H](COP(=O)(O)CP(=O)(O)O)[C@@H](O)[C@H]2O)cc/c1=N/OCc1ccc(C(N)=O)cc1 | 1.76 | 
4 | Cn1c(=O)n([C@H]2[C@H](O)[C@H](O)[C@]3(COP(=O)(O)CP(=O)(O)O)C[C@H]23)cc/c1=N/OCc1ccc(Cl)cc1 | 59.2 | 
5 | Cn1c(=O)n([C@@H]2O[C@H](COP(=O)(O)CP(=O)(O)O)[C@@H](O)[C@H]2O)cc/c1=N/OCc1ccc(C(=O)NCCC(=O)O)cc1 | 2.61 | 
6 | Cn1c(=O)n([C@@H]2O[C@H](COP(=O)(O)CP(=O)(O)O)[C@@H](O)[C@H]2O)cc/c1=N/OCc1ccc(C(=O)O)cc1 | 14.1 | 
7 | O=c1ccn([C@H]2[C@H](O)[C@H](O)[C@]3(COP(=O)(O)CP(=O)(O)O)C[C@H]23)c(=O)[nH]1 | > 50000 | inhibition (5'-nucleotidase [4]): 28%
8 | Cn1c(=O)n([C@@H]2O[C@H](COP(=O)(O)CP(=O)(O)O)[C@@H](O)[C@H]2O)cc/c1=N/OCc1ccc(C(=O)NCCCCN)cc1 | 1.78 | 
9 | Nc1ncnc2c1ncn2[C@@H]1O[C@H](COP(=O)(O)CP(=O)(O)O)[C@@H](O)[C@H]1O |  | inhibition (5'-nucleotidase [2]): inactive; inhibition (5'-nucleotidase [3]): inactive
10 | Cn1c(=O)n([C@@H]2O[C@H](COP(=O)(O)CP(=O)(O)O)[C@@H](O)[C@H]2O)cc/c1=N/OCc1ccccc1Cl | 1.63 | 
11 | CCOC(=O)CCNC(=O)c1ccc(CO/N=c2/ccn([C@@H]3O[C@H](COP(=O)(O)CP(=O)(O)O)[C@@H](O)[C@H]3O)c(=O)n2C)cc1 | 2.51 | 
12 | Cn1c(=O)n([C@@H]2O[C@H](COP(=O)(O)CP(=O)(O)O)[C@@H](O)[C@H]2O)cc/c1=N/C(=O)NCc1ccccc1 | 71.5 | 
13 | Cn1c(=O)n([C@@H]2O[C@H](COP(=O)(O)CP(=O)(O)O)[C@@H](O)[C@H]2O)cc/c1=N/OCc1cccc(C(F)(F)F)c1 | 1.27 | 
14 | CCc1ccc(CO/N=c2/ccn([C@@H]3O[C@H](COP(=O)(O)CP(=O)(O)O)[C@@H](O)[C@H]3O)c(=O)n2C)cc1 | 3.5 | 

Further compounds by falling Ki (5'-nucleotidase [1]), results first:

Row | Ki (5'-nucleotidase [1]) [nM] | SMILES | further results
15 | 1.14 | Cn1c(=O)n([C@@H]2O[C@H](COP(=O)(O)CP(=O)(O)O)[C@@H](O)[C@H]2O)cc/c1=N/OCc1ccc(F)cc1 | 
16 | 1.08 | Cn1c(=O)n([C@@H]2O[C@H](COP(=O)(O)CP(=O)(O)O)[C@@H](O)[C@H]2O)cc/c1=N/OCc1ccc(C(F)(F)F)cc1 | 
17 | 0.894 | Cc1ccc(CO/N=c2/ccn([C@@H]3O[C@H](COP(=O)(O)CP(=O)(O)O)[C@@H](O)[C@H]3O)c(=O)n2C)cc1 | 
18 | 0.848 | COC(=O)c1ccc(CO/N=c2/ccn([C@@H]3O[C@H](COP(=O)(O)CP(=O)(O)O)[C@@H](O)[C@H]3O)c(=O)n2C)cc1 | 
19 | 0.626 | Cn1c(=O)n([C@@H]2O[C@H](COP(=O)(O)CP(=O)(O)O)[C@@H](O)[C@H]2O)cc/c1=N/OCc1ccc(C(=O)NCCN)cc1 | 
20 | 0.511 | Cn1c(=O)n([C@@H]2O[C@H](COP(=O)(O)CP(=O)(O)O)[C@@H](O)[C@H]2O)cc/c1=N/OCc1ccc(S(F)(F)(F)(F)F)cc1 | inhibition (5'-nucleotidase [2]): Dose-Dependent Effect; inhibition (5'-nucleotidase [3]): Dose-Dependent Effect
21 | 0.441 | Cn1c(=O)n([C@@H]2O[C@H](COP(=O)(O)CP(=O)(O)O)[C@@H](O)[C@H]2O)cc/c1=N/OCc1ccc(Br)cc1 | 
22 | 0.436 | Cn1c(=O)n([C@@H]2O[C@H](COP(=O)(O)CP(=O)(O)O)[C@@H](O)[C@H]2O)cc/c1=N/OCc1ccc(I)cc1 | inhibition (5'-nucleotidase [2]): Dose-Dependent Effect; inhibition (5'-nucleotidase [3]): Dose-Dependent Effect
